Several values for one entry are separate records, joined by “and”; a condition that tells them apart may be missing. Equal values may be shown once.
Experiments:
[1] = biological target: N-type calcium channel (NTCC) (Homo sapiens, UniProt Q00975); assay: FLIPR calcium mobilization assay for N-type calcium channel (differentiated IMR32 cells); assay type: cell-based; parameters: endogenous in cells; host or cells: IMR32 cells (ATCC), differentiated 8 days with dibutyryl cAMP and bromodeoxyuridine; conditions: calcium mobilization in vitro assay; N-type calcium channel block
Sequence of N-type calcium channel (NTCC) (Q00975 whole entry): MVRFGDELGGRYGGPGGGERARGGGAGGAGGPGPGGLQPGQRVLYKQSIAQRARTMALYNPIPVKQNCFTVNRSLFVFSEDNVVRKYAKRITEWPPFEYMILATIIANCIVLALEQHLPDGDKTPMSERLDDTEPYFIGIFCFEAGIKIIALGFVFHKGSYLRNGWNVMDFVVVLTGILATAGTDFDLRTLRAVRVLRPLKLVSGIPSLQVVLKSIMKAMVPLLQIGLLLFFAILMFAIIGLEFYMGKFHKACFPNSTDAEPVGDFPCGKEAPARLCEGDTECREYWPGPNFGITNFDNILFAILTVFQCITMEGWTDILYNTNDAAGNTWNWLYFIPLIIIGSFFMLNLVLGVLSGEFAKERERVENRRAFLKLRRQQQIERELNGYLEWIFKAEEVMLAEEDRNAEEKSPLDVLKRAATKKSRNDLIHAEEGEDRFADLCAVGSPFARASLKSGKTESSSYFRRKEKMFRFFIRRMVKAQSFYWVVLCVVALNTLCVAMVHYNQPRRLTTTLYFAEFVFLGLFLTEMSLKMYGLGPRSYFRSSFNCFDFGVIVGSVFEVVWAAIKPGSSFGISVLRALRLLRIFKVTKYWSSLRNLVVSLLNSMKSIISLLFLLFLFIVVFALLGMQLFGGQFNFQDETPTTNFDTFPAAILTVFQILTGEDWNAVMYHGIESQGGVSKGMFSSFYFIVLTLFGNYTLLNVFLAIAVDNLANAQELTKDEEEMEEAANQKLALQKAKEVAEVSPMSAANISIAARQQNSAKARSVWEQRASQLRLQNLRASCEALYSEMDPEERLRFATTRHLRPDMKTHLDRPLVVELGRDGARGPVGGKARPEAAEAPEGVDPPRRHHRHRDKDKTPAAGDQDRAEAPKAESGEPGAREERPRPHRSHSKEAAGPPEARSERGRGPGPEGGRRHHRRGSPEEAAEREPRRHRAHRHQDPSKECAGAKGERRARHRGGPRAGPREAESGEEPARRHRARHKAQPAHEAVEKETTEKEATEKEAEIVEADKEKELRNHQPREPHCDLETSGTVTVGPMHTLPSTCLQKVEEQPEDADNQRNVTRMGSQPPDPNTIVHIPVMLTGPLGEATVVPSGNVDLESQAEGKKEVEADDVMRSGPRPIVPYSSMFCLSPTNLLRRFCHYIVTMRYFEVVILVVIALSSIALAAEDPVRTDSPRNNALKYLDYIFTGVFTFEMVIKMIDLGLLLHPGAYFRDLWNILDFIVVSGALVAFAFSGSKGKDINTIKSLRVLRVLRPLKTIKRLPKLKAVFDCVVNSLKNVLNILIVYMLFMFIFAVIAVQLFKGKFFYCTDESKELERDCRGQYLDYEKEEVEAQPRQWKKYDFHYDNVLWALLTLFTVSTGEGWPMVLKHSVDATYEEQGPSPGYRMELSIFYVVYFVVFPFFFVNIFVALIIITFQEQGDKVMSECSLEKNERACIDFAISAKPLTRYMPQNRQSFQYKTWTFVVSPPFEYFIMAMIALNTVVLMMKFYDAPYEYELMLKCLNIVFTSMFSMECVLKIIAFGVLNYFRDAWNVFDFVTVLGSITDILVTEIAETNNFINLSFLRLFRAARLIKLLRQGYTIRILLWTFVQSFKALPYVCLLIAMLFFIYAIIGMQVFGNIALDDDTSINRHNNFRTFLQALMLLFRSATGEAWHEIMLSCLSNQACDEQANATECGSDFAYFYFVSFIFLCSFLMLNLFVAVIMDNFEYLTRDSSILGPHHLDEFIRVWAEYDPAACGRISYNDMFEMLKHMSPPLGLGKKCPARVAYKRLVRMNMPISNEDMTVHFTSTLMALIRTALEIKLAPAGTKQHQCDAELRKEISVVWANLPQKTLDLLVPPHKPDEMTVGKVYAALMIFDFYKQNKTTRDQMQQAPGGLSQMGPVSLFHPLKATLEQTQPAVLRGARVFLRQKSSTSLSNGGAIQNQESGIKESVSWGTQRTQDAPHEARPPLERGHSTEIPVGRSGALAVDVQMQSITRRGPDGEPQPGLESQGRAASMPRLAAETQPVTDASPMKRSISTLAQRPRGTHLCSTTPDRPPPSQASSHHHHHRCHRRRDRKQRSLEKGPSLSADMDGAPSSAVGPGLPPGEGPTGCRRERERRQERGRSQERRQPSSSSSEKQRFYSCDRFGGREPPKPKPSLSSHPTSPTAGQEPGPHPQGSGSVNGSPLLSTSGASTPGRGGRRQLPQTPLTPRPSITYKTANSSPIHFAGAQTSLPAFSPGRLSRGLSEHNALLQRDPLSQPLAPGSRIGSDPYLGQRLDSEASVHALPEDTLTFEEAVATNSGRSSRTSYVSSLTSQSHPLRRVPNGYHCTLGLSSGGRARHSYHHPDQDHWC
Sequence of N-type calcium channel (NTCC) (P54289 25-956 partner limits assumed): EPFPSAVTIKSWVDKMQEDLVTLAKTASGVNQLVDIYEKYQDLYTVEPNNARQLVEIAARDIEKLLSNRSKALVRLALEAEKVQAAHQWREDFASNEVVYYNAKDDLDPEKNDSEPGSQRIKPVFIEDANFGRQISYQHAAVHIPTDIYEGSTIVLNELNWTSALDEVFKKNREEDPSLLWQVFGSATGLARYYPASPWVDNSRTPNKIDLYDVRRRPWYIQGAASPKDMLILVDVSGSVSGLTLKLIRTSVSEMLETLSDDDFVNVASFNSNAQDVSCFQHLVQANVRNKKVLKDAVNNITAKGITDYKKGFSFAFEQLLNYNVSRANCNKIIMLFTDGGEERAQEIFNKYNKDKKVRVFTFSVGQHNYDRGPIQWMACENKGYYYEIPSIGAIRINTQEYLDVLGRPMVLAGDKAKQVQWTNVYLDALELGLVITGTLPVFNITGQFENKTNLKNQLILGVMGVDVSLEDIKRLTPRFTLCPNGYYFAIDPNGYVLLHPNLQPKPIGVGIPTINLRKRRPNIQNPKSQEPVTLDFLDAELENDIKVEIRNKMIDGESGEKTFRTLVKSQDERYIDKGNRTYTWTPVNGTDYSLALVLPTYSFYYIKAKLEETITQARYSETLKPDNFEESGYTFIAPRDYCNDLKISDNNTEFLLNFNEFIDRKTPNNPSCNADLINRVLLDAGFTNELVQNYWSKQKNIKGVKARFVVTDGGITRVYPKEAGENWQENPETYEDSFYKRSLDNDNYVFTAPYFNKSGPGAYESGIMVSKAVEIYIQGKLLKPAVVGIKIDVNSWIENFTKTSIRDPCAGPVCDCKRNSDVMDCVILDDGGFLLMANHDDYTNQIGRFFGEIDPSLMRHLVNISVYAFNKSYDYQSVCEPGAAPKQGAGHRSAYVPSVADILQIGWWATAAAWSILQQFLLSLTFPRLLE
Sequence of N-type calcium channel (NTCC) (P54289 957-1103 partner limits assumed): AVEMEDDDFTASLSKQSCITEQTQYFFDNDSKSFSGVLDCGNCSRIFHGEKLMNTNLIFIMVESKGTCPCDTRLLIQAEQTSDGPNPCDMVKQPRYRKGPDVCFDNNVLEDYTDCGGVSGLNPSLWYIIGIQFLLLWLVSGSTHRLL
Sequence of N-type calcium channel (NTCC) (Q02641 whole entry partner): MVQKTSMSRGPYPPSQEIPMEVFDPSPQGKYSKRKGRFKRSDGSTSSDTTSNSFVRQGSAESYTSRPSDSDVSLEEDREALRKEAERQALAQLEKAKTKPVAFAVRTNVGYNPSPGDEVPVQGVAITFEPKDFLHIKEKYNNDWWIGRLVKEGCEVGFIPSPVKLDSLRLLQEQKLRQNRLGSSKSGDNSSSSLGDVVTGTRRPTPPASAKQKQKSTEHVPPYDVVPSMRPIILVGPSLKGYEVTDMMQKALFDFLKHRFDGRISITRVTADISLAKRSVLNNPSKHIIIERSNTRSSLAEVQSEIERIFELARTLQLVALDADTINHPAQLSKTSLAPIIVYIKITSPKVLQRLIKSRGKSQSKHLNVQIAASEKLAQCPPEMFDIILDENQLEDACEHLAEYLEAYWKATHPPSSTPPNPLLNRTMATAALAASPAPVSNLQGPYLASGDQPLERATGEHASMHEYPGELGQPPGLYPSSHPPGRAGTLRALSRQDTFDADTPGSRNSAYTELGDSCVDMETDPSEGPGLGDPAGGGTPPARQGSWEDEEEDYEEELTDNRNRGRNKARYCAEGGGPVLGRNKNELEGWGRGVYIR
Description: Cell maintenance and differentiation. Unless noted otherwise, cell culture reagents were purchased from Mediatech of Herndon, Md. IMR32 cells (American Type Culture Collection, ATCC, Manassas, Va.) were routinely cultured in growth medium consisting of minimum essential medium containing 10% fetal bovine serum (FBS, Hyclone, Logan, Utah), 100 U/mL penicillin, 100 μg/mL streptomycin, 2 mM L-glutamine, 1 mM sodium pyruvate, and 1×MEM non-essential amino acids. 80-90% confluent flasks of cells were differentiated using the following differentiation medium: Growth medium plus 1 mM dibutyryl cyclic AMP (Sigma, St. Louis, Mo.), and 2.5 μM bromodeoxyuridine (Sigma). Cells were differentiated for 8 days by replacing differentiation medium every 2-3 days.
FLIPR Calcium Mobilization Assay for N-type Calcium Channel. One day prior to performing this assay, differentiated IMR32 cells were treated with 1×
CellStripper, and seeded on poly-D-lysine-coated 96-well clear-bottom black plates (Becton Dickinson, Franklin Lakes, N.J.) at 200,000 cells/well. On the day of the assay, the cell plates were washed with IMR32 buffer (127 mM NaCl, 1 mM KCl, 2 mM MgCl2, 700 μM NaH2PO4, 5 mM CaCl2, 5 mM NaHCO3, 8 mM HEPES, 10 mM glucose, pH 7.4), then pre-stimulated with KCl and loaded as follows: 0.05 mL of IMR32 buffer, 0.05 mL of each compound tested diluted in IMR32 buffer containing 20 μM nitrendipine (Sigma), and 0.1 mL KCl dissolved in IMR32 buffer, plus Fluo-4 were added (3 μM final concentration, Molecular Probes, Eugene, Oreg.). Final test compound concentrations ranged from about 846 pM to about 17 μM, final nitrendipine concentration was 5 μM, and final KCl concentration was 90 mM. After 1 hour, the cells were washed twice with 0.05 mL of each compound tested in nitrendipine-containing IMR32 buffer (no KCl or Fluo-4), and then replaced with 0.1 mL of each compound tested in nitrendipine-containing IMR32 buffer. Plates were then transferred to a Fluorimetric Imaging Plate Reader (FLIPR^96, Molecular Devices, Inc., Sunnyvale, Calif.) for assay. The FLIPR measured basal Fluo-4 fluorescence for 315 seconds (i.e., 5 minutes and 15 seconds), then added 0.1 mL KCl agonist dissolved in IMR32 buffer and measured fluorescence for another 45 seconds. Final test compound concentrations on the cells after FLIPR read ranged from about 846 pM to about 17 μM, final nitrendipine concentration was 5 μM, and final KCl concentration was 90 mM. Data were collected over the entire time course and analyzed using Excel, Graph Pad Prism (version 3.02, Graph Pad, San Diego, Calif.), or an in-house non-linear regression analysis software.

[2] = biological target: T1, L-type calcium channel (LTCC) (Rattus norvegicus, UniProt P22002); assay: FLIPR calcium mobilization assay for L-type calcium channel (HEK293 cells expressing recombinant rat LTCC subunits, or alternatively differentiated A7r5 cells); assay type: cell-based; conditions: calcium mobilization in vitro assay; L-type calcium channel block
T1 construct: The 6.5 kb cDNA encoding the L-type calcium channel α1c subunit was cloned by PCR amplification from rat heart cDNA; expressed in transfected cells; host or cells: HEK293 (ATCC), stably transfected
Description: A7r5 (ATCC) cells were maintained and routinely cultured in A7r5 growth medium consisting of Dulbecco's Modified Eagles Medium containing 10% FBS, 100 U/mL penicillin, 100 μg/mL streptomycin, 4 mM L-glutamine, and 0.15% sodium bicarbonate. 80-90% confluent flasks of cells were differentiated using the following differentiation medium: A7r5 Growth Medium plus 1 mM dibutyryl cyclic AMP (Sigma). Cells were differentiated for 8 days by replacing differentiation medium every 2-3 days.
FLIPR Calcium Mobilization Assay for L-type Calcium Channel. One day prior to performing this assay, HEK293 cells stably expressing recombinant rat L-type calcium channel (LTCC) subunits (α1c, α2δ, and β1) are trypsinized, then seeded on poly-D-lysine-coated 96-well clear-bottom black plates (Becton Dickinson, Franklin Lakes, N.J.) at 75,000 cells/well. On the day of the assay, the plates are washed with LTCC wash buffer (127 mM NaCl, 2 mM MgCl2, 700 μM NaH2PO4, 5 mM CaCl2, 5 mM NaHCO3, 8 mM HEPES, 10 mM glucose, pH 7.4), then loaded with 0.1 mL of LTCC wash buffer containing Fluo-4 (3 μM final concentration, Molecular Probes, Eugene, Oreg.). After 1 hour, the cells are washed with 0.1 mL LTCC wash buffer and resuspended in 0.05 mL LTCC assay buffer (same composition as LTCC wash buffer). Plates are then transferred to a FLIPR^96 for assay. The FLIPR measures basal Fluo-4 fluorescence for 15 seconds, then adds 0.05 mL of each compound tested diluted in LTCC assay buffer at final concentrations ranging from about 846 pM to about 17 μM. Fluo-4 fluorescence is then measured for 5 minutes. 0.1 mL KCl agonist dissolved in LTCC assay buffer is then added to the cells to produce a final concentration of 90 mM KCl, and fluorescence is measured for another 45 seconds. Data are collected over the entire time course and analyzed using Excel, Graph Pad Prism, or an in-house regression analysis software.
Alternative FLIPR Calcium Mobilization Assay for L-type Calcium Channel. Alternatively, the following cell line and procedure was used for the FLIPR calcium mobilization assay for L-type calcium channel. One day prior to performing this assay, differentiated A7r5 cells were trypsinized, then seeded on tissue culture treated 96-well clear-bottom black plates (Becton Dickinson, Franklin Lakes, N.J.) at a dilution of 1:1 from a confluent T150 cm^2 flask. On the day of the assay, the plates were washed with A7r5 wash buffer (127 mM NaCl, 2 mM MgCl2, 700 μM NaH2PO4, 5 mM CaCl2, 5 mM NaHCO3, 8 mM HEPES, 10 mM glucose, pH 7.4), then loaded with 0.1 mL of A7r5 wash buffer containing Fluo-4 (3 μM final concentration, Molecular Probes, Eugene, Oreg.). After 1 hour, the cells were washed with 0.1 mL A7r5 wash buffer and resuspended in 0.05 mL A7r5 assay buffer that was composed of A7r5 wash buffer plus 50 μM valinomycin (Sigma). Plates were then transferred to a FLIPR^96 for assay. The FLIPR measured basal Fluo-4 fluorescence for 15 seconds, then added 0.05 mL of each compound tested diluted in A7r5 assay buffer at final concentrations ranging from about 846 pM to about 17 μM. Fluo-4 fluorescence was then measured for 5 minutes. 0.1 mL KCl agonist dissolved in A7r5 assay buffer is then added to the cells to produce a final concentration of 90 mM KCl, and fluorescence was measured for another 45 seconds. Data were collected over the entire time course and analyzed using Excel, Graph Pad Prism, or an in-house regression analysis software.

Row | Compound | IC50 [1] | IC50 [2] [µM]
1 | O=C1OC2(CCN(CCC(=O)N(c3ccc(F)cc3)c3ccc(F)cc3)CC2)c2ccccc21 [1,3-dihydro-1′-{2-[N,N-bis(4-fluorophenyl)aminocarbonyl]ethyl}-spiro[isobenzofuran-1,4′-piperidine]-3-one] | 1.64 µM | –
2 | COc1ccc(CN(C)C(CC(C)C)C(=O)N2CCC3(CC2)OC(=O)c2ccccc23)cc1 (centres unmarked) [1,3-dihydro-1′-{4-methyl-2-[N-methyl-N-(4-methoxybenzyl)amino]-pentanoyl}-spiro[isobenzofuran-1,4′-piperidine]-3-one] | 4.13 µM | –
3 | O=C(CCC(=O)N1CCC2(CC1)OC(=O)c1ccccc12)c1ccc(F)cc1 [1,3-dihydro-1′-[4-(4-fluorophenyl)-4-oxobutanoyl]-spiro[isobenzofuran-1,4′-piperidine]-3-one] | 10 to 20 µM | –
4 | O=C1OC2(CCN(C(=O)CC(=O)N(c3ccc(F)cc3)c3ccc(F)cc3)CC2)c2ccccc21 [Compound 75, 1,3-Dihydro-1′-{2-[N,N,-bis(4-fluorophenyl)aminocarbonyl]ethan-1-oyl}-spiro[isobenzofuran-1,4′-piperidine]-3-one] | 5.79 µM | –
5 | O=C1c2ccccc2C2(CCN(CCCC(c3ccc(F)cc3)c3ccc(F)cc3)CC2)N1Cc1ccccc1 [Compound 51, 2-Benzyl-2,3-dihydro-1′-[4,4-bis(4-fluorophenyl)butyl]-spiro[isoindole-1,4′-piperidine]-3-one] | 0.55 µM | 6.39
6 | O=C(N1CCc2cc(S(=O)(=O)N3CCC4(C=Cc5ncccc54)CC3)ccc2C1)C(F)(F)F [1-(N-trifluoromethylcarbonyl-1,2,3,4-tetrahydroisoquinolin-6-yl-sulfonyl)-spiro[piperidine-4,5′-cyclopenta[b]pyridine]] | 5.61 µM | –
7 | Fc1ccc(C(CCCN2CCC3(CC2)OCc2ccccc23)c2ccc(F)cc2)cc1 [Compound 42, 1,3-Dihydro-1′-[4,4-bis(4-fluorophenyl)butyl]-spiro[isobenzofuran-1,4′-piperidine]] | 1.2 µM | 2.56
8 | O=C1NC2(CCN(CCCC(c3ccc(F)cc3)c3ccc(F)cc3)CC2)c2ccccc21 [2,3-Dihydro-1′-[4,4-bis(4-fluorophenyl)butyl]-spiro[isoindole-1,4′-piperidine]-3-one] | 0.34 µM | > 20
9 | O=C1OC2(CCN(C(=O)CCC(c3ccc(F)cc3)c3ccc(F)cc3)CC2)c2ccccc21 [Compound 14, 1,3-Dihydro-1′-[4,4-bis(4-fluorophenyl)butanoyl]-spiro[isobenzofuran-1,4′-piperidine]-3-one] | 0.69 µM | 0.31
10 | C1=CC2(CCN(CCC=C3c4ccccc4CCc4ccccc43)CC2)c2cccnc21 [1-[2-(10,11-dihydro-5H-dibenzo[a,d]cyclohepten-5-ylmethenyl)ethyl]-spiro[piperidine-4,5′-cyclopenta[b]pyridine]] | 0.55 µM | 3.78
11 | COc1ccc(C(=O)N2CCC3(CC2)OC(=O)c2ccccc23)cc1C(F)(F)F [1,3-dihydro-1′-(4-methoxy-3-trifluoromethylbenzoyl)-spiro[isobenzofuran-1,4′-piperidine]-3-one] | 6.94 µM and 10 to 20 µM | –
12 | O=C(CCC(c1ccc(F)cc1)c1ccc(F)cc1)N1CCC2(C=Cc3ccccc32)CC1 [Compound 34, 1-[4,4-bis(4-fluorophenyl)butanoyl]-spiro[piperidine-4,1′-indene]] | 10 to 20 µM | –
13 | O=C1OC2(CCN(C(=O)CC(c3ccccc3)c3ccccc3)CC2)c2ccccc21 [1,3-dihydro-1′-(3,3-diphenylpropanoyl)-spiro[isobenzofuran-1,4′-piperidine]-3-one] | 2.66 µM | –
14 | O=C(c1cc2ccccc2s1)N1CCC2(C=Cc3ncccc32)CC1 [1-(benzo[b]thiophen-2-ylcarbonyl)-spiro[piperidine-4,5′-cyclopenta[b]pyridine]] | 10 to 20 µM | –
15 | O=C1OC2(CCN(CC(=O)N(c3ccc(F)cc3)c3ccc(F)cc3)CC2)c2ccccc21 [Compound 71, 1,3-Dihydro-1′-[N,N,-bis(4-fluorophenyl)aminocarbonylmethyl]-spiro[isobenzofuran-1,4′-piperidine]-3-one] | 4.89 µM | –
16 | O=C1OC2(CCN(C(=O)c3ccc(OCC(F)(F)F)nc3)CC2)c2ccccc21 [1,3-dihydro-1′-[6-(2,2,2-trifluoroethoxy)pyridin-3-ylcarbonyl]-spiro[isobenzofuran-1,4′-piperidine]-3-one] | 6.47 µM | –
17 | COc1ccc(C(=O)N2CCC3(CC2)OC(=O)c2ccccc23)cn1 [1,3-dihydro-1′-(6-methoxypyridin-3-ylcarbonyl)-spiro[isobenzofuran-1,4′-piperidine]-3-one] | 10 to 20 µM | –
18 | CC(C)CC(C(=O)N1CCC2(CC1)OC(=O)c1ccccc12)N(C)C(=O)OC(C)(C)C (centres unmarked) [1,3-dihydro-1′-[4-methyl-2-(N-methyl-N-tert-butoxycarbonylamino)pentanoyl]-spiro[isobenzofuran-1,4′-piperidine]-3-one] | 10.5 µM | –
19 | COc1ccc(CN2CCC3(C=Cc4ncccc43)CC2)cc1C(F)(F)F [1-(4-methoxy-3-trifluoromethylbenzyl)-spiro[piperidine-4,5′-cyclopenta[b]pyridine]] | 10 to 20 µM | –
20 | O=C(CC=C(c1ccc(F)cc1)c1ccc(F)cc1)N1CCC2(C=Cc3ccccc32)CC1 [Compound 33, 1-[4,4-bis(4-fluorophenyl)but-3-enoyl]-spiro[piperidine-4,1′-indene]] | 5.59 µM | –
21 | O=C(CC(c1ccccc1)c1ccccc1)N1CCC2(C=Cc3ncccc32)CC1 [1-(3,3-diphenylpropanoyl)-spiro[piperidine-4,5′-cyclopenta[b]pyridine]] | 3.52 µM | –
